Columns and labels:
[1] = Determination of stability in plasma in vitro, mouse plasma (LC-MS/MS); format: in vitro ADME; conditions: 37 °C, read-out: Half-life T1/2 (min) in plasma of different species, Mouse plasma
Method: (§1) Pharmacological Example 3: Determination of Stability in Plasma in Vitro
(§2) The stock solution was diluted with acetonitrile to obtain a working solution at a concentration of 100 µ M. The solution should be freshly prepared prior to use and maintained at room temperature during application.
(§3) 990 µ L of human and mouse plasma (N = 2) were separately pipetted and pre-incubated at 37 °C for 5 min. Then, 10 µ L of the test compound working solution was added and vortexed thoroughly (the final concentration of the test compound was 1 µ M). Immediately, 50 µ L of the plasma sample was added to 150 µ L of ice-cold precipitation agent containing the internal standard and vortexed thoroughly as the 0-time sample. The remaining plasma sample was continuously incubated at 37 °C, and 50 µ L of the plasma sample was aspirated and added to 150 µ L of ice-cold precipitation agent containing the internal standard at preset sampling time points, followed by thorough vortexing. The collected samples were stored in a freezer at -60 to -90 °C until analysis.
(§4) The concentration of the test compound was determined by LC-MS/MS, and its degradation was monitored. (semi-quantitative determination was conducted by comparing the peak area of the analyte to that of the internal standard).

[2] = Determination of stability in plasma in vitro, human plasma (LC-MS/MS); format: in vitro ADME; conditions: human, human plasma, 1 µM, 37 °C; read-out: Half-life T1/2 (min) in plasma of different species, Human plasma
Method: as §1, §2, §3, §4

IL-17 = assay: Psoriasis experiment (imiquimod model): inflammatory cytokine in serum (ELISA); format: in vivo, mice; conditions: for level of IL-17 / inflammatory cytokines in psoriasis model mice: compared with the model group; for IL-17: serum, day 8 of modeling, 0.2 g cream per mouse daily for 7 days
Method: Positive control drug: Fluticasone Propionate Cream (specification: 0.05% × 15 g, Zhejiang Xianju Pharmaceutical Co. Ltd., Lot No. 211106), stored at room temperature protected from light until use.
Adult mice were selected, and the skin of 2 cm × 3 cm on the back of mice was locally depilated. The mice in the model group and drug administration group were applied with 62.5 mg of 5% imiquimod cream on their back for modeling, while the mice in the blank control group were applied with medical petroleum jelly on their back daily. The above procedures were performed once a day for 7 consecutive days.
The mice in the drug administration group were applied with the corresponding drugs on their backs daily at a dose of 0.2 g per mouse, while the blank control group and the model group were only applied with 0.2 g of the test sample drug matrix. One hour after drug administration, the drugs were wiped off with sterile cotton swabs, followed by the application of imiquimod. The above procedures were performed once a day for 7 consecutive days.
After the PASI scoring on day 8 of modeling, blood was collected from the orbital sinus of mice and centrifuged at 3000 rpm for 10 min. The supernatant was extracted to measure the level of IL-17. All procedures were performed following the instructions of the ELISA kit.
Statistical analysis was performed using SPSS software, and the results were expressed as mean ± standard deviation. One-way ANOVA was used for intergroup comparisons. For data with homogeneous variance, the LSD test was used; for data with heterogeneous variance, the Dunnett-t test was used. A value of P < 0.05 was considered statistically significant.

[3] = Stability in animal lung tissue homogenate, skin tissue homogenate and aqueous humor; format: in vitro ADME
[4] = biological target: T1, mineralocorticoid receptor (MR) (Homo sapiens, UniProt P08235); assay: Assay for agonist activity on mineralocorticoid receptor (luciferase reporter, HEK293 cells transfected with pBIND-MR plasmid); format: cell-based
T1 sequence (P08235 726-984): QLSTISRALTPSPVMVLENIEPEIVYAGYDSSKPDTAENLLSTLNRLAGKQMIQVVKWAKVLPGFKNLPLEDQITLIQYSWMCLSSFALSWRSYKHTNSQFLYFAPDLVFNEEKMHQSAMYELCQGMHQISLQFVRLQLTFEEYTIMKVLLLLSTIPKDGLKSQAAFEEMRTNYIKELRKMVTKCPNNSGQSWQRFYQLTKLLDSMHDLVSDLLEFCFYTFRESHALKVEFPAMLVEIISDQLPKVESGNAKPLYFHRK
Summary of the method: (§5)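 HEK293 cells transiently transfected with pBIND-MR or pBIND-PR, seeded in phenol red-free DMEM with 5% charcoal-stripped serum. Compounds tested as 12-point 4-fold dilutions from 50 µM in duplicate, 0.1% DMSO blank. Luciferase luminescence read, EC50 by nonlinear fit.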

[5] = tested on: inflammatory cytokines IL-6 and IL-12; assay: Anti-asthma pharmacodynamic experiment: inflammatory cytokines in bronchoalveolar lavage fluid (ELISA); format: in vivo, female BALB/c mice
Method: (§6) Pharmacological Example 4: Pharmacodynamic Experiment on Anti-Asthma
(§7) The suspensions were stored at room temperature protected from light until use.
(§8) Positive control drug: Budesonide Suspension for Inhalation (specification: 2 mL: 1 mg; AstraZeneca Inc.; Lot No. : 327392) was diluted with injection-grade sodium chloride solution to 0.3 mg/ml as the positive control drug, and stored at room temperature protected from light until use.
(§9) Sixty female BALB/c mice underwent a one-week adaptive feeding period. Ten mice were randomly selected as the blank control group, while 50 mice were selected to establish asthma models.
(§10) From days 21 to 23 after sensitization, the mice in the model group and drug administration group were exposed to a 30-minute aerosol challenge with 5% OVA, while the mice in the blank control group were exposed to normal saline aerosol for the same duration.
At the end of airway hyperresponsiveness testing in mice, the mice were euthanized by cervical dislocation and fixed on a dissection tray. The abdomens and thoracic cavities of the mice were opened, and the skin and excess tissues of the neck were excised to expose the trachea of the mice. A small incision was made transversely on the trachea with a small scissors. A pre-treated 1 mL syringe needle was inserted and fastened with surgical thread. A 1 mL syringe was used to slowly inject 0.5 mL of pre-chilled phosphate-buffered saline (PBS) into the lungs of the mice, followed by slow aspiration. Each mouse was lavaged once, and a total of approximately 0.4 ml of lavage fluid was collected. The bronchoalveolar lavage fluid was centrifuged at 3000 rpm for 5 min. After centrifugation, the supernatant was aliquoted, and the levels of inflammatory cytokines IL-6 and IL-12 in the bronchoalveolar lavage fluid were determined using ELISA kits.
(§11) Statistical analysis was performed using SPSS software. Measurement data were expressed as mean ± standard deviation. One-way ANOVA was used for intergroup comparisons. For data with homogeneous variance, LSD test was used; for data with heterogeneous variance, Dunnett-t test was used. A value of P < 0.05 was considered statistically significant.

[6] = Pharmacokinetic (PK) experiment in rats; format: in vivo, male SD rats; conditions: male, SD, rat, plasma, single
Method: Pharmacological Example 11. Pharmacokinetic (PK) Experiment in Rats
The solution was prepared before administration.
Animals: 6 male SD rats, SPF grade (Beijing Vital River Laboratory Animal Technology Co., Ltd.).
Animal grouping: The animals were weighed prior to administration, and the dosage was calculated based on body weight. The animals in the oral administration group were fasted overnight (10-14 hours) before administration, and food was reintroduced 4 hours post-administration. Table 23. Animal grouping and drug administration dosages for pharmacokinetic (PK) experiment in rats
Blood collection time points: Blood was collected from the jugular vein at 2 min, 5 min, 15 min, 30 min, 1 h, 2 h, 4 h, 8 h, and 24 h after administration. Approximately 0.25 mL of blood was collected for each sample, anticoagulated with heparin sodium, and then placed on ice immediately.
Plasma sample processing: Blood samples were placed on ice after collection and centrifuged to separate plasma within 1 hour (centrifugation conditions: 6000 rpm, 3 minutes, 2-8 °C ). Plasma samples were stored in a -80°C freezer before analysis.
Data processing: Pharmacokinetic parameters were calculated using Phoenix WinNonlin 8.2.0 based on the plasma drug concentration data at different time points.

psoriasis model mice = assay: Psoriasis experiment (imiquimod model): skin lesion (PASI) score; format: in vivo; conditions: for PASI scores: compared with the model group; for PASI score: day 8 of modeling, 0.2 g cream per mouse daily for 7 days (compounds 1 mg/g, fluticasone propionate 0.5 mg/g)
asthma model mice = assay: Anti-asthma pharmacodynamic experiment: airway hyperresponsiveness (Penh) after methacholine challenge; format: in vivo, female BALB/c mice
Method: as §6, §7, §8, §9, §10
Airway responsiveness was measured in all groups of mice after the last challenge. The mice were placed into a plethysmography chamber, and baseline Penh values were recorded. Subsequently, the mice were challenged with aerosolized methacholine at concentrations from low to high of 0, 6.25, and 12.5 mg/mL, with an aerosol volume of 100 µ L each time for 60 s. […] Penh values were then recorded for 3 min and averaged to compare the airway responsiveness of each group of mice.
as §11

[7] = biological target: T2, progesterone receptor (PR) (Homo sapiens, UniProt P06401); assay: Assay for agonist activity on progesterone receptor (luciferase reporter, HEK293 cells transfected with pBIND-PR plasmid); format: cell-based
T2 sequence (P06401 678-933): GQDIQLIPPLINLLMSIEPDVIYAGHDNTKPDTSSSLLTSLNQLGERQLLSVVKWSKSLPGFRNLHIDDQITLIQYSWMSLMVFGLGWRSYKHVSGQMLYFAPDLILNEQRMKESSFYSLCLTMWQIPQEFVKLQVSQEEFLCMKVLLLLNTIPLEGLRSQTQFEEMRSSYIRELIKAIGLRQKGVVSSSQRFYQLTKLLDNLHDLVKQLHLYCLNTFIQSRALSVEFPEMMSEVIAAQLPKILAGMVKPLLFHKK
Summary of the method: as §5

[8] = after entering the systemic circulation; cited from earlier work
[9] = tested on: inflammatory bowel disease model rats; assay: Inflammatory bowel disease experiment (TNBS model): macroscopic injury score of the colon; format: in vivo; conditions: colon, day 5 after TNBS; 2 mg/kg once a day (compounds intraintestinally, dexamethasone by gavage)
Method: Pharmacological Example 7: Pharmacodynamic Experiment on Inflammatory Bowel Disease in Rats
Test samples: The jet-milled compounds 23 and 34 were accurately weighed and prepared as 2 mg/mL clear solutions using anhydrous ethanol, respectively. The solutions were then diluted to 0.2 mg/mL with double-distilled water as the test samples, and stored at room temperature protected from light until use.
Animals in Groups 2 to 5 were subjected to trinitrobenzene sulfonic acid (TNBS) modeling as follows: A 5% TNBS aqueous solution was adjusted to 20 mg/mL TNBS (50% ethanol solution) with alcohol and water. After fasting for 24 h, the rats were anesthetized using an inhalation anesthesia machine. A silicone hose was inserted approximately 8 cm into the anus, and then TNBS was injected at a dose of 50 mg/kg. After injection, the rats were placed vertically for 1 min to prevent the backflow of TNBS solution. Then, the rats were placed into their cages for observation until the animals recovered.
Drug administration started one day before modeling, with one dose administered 1 hour before modeling and then once a day for 5 consecutive days. […] Table 14. Animal grouping and drug administration dosages
The experiment ended on day 5 after TNBS modeling. After isoflurane anesthesia, blood was collected from the hearts, and the rats were euthanized. The abdominal cavity was rapidly opened, and the macroscopic injury scoring of the colon in rats was performed based on the adhesion, obstruction, thickening of the colonic wall, colonic congestion, and necrosis in the colon area. After clearing the colonic contents, the colonic samples were longitudinally incised. The proximal 2/3 of the colon was excised, prepared into Swiss rolls, and stored in 4% neutral buffered formalin for histopathological analysis. Tissues were trimmed, dehydrated, paraffin-embedded, and sectioned (approximately 5 µm thickness), stained with hematoxylin-eosin (HE), and observed for pathological changes. Pathologists performed blind scoring of colonic lesions.
Quantitative indices were first subjected to Bartlett's test for homogeneity of variance. When the variance was homogeneous (P > 0.05), one-way analysis of variance (ANOVA) was used for a statistical test; if there was statistical significance (P ≤ 0.05), Dunnett's t-test (Dunnett method) was used to compare intergroup differences; if there was no statistical significance (P > 0.05), the statistical analysis was concluded. When the variance was heterogeneous (P ≤ 0.05), Kruskal-Wallis H rank-sum test (K-W method) was used for statistical analysis: if there was statistical significance (P ≤ 0.05), Mann-Whitney U test (M-W method) was further performed to compare intergroup differences; if there was no statistical significance (P > 0.05), the statistical analysis was concluded.

[10] = bronchoalveolar lavage fluid, 0.3 mg/mL, 50 µL intratracheally once daily for 3 days

For C[C@]12C=CC(=O)C=C1[C@@H](F)C[C@H]1[C@@H]3C[C@H]4OC(c5ccc(CSC6CCOC6=O)cc5)O[C@@]4(C(=O)CO)[C@@]3(C)C[C@H](O)[C@@]12F (stereo partly drawn) [Compound 8, (2S,6aS,6bR,7S,8aS,8bS,11aR,12aS,12bS)-2,6b-Difluoro-7-hydroxy-8b-(2-hydroxyacetyl)-6a,8a-dimethyl-10-(4-(((2-oxotetrahydrofuran-3-yl)thio)methyl)phenyl)-1,2,6a,6b,7,8,8a,8b,11a,12,12a, 12b-dodecahydro-4H-naphtho[2',1':4,5]indeno[1,2-d][1,3]dioxol-4-one], the half-life at 1 µM [1] was less than 30 min, the half-life at 1 µM [2] was less than 30 min and the “level of IL-17 / inflammatory cytokines in psoriasis model mice” value (IL-17) was “significantly decreased the level of IL-17”. For the same compound, the “IL-17” value (IL-17) was 53.35 ± 64.19 pg/mL, the “stability in animal lung tissue homogenate, skin tissue homogenate, and aqueous humor” value [3] was “relatively stable” and the EC50 [4] was greater than 50 µM. The “IL-6” value [5, 10] was 19.9 ± 5.3 pg/mL, the “IL-12” value [5, 10] was 20.1 ± 7.1 pg/mL and the “Effects on inflammatory cytokines in bronchoalveolar lavage fluid of mice” value ([5]; compared with the model group) was “extremely significantly decreased the levels of IL-6 and IL-12 in mice”. It also gave an AUC(0-t) ([6]; iv, 2 mg/kg) of 106 ± 35.9 ng·h/mL, a half-life ([6]; iv, 2 mg/kg) of less than 0.5 h and an AUC(0-t) ([6]; po, 10 mg/kg, gavage) of less than 70 ng·h/mL. It also gave a half-life ([6]; po, 10 mg/kg, gavage) of 5.21 ± 3.17 h, a Cmax ([6]; IV, 2 mg/kg) of 924 ± 504 ng/mL and a Cmax ([6]; PO, 10 mg/kg, gavage) of 23.5 ± 14.4 ng/mL. The PASI scores (psoriasis model mice) was “PASI scores significantly decreased on day 7”, the PASI score (psoriasis model mice) was 4.8 ± 1.3 and the “Penh values in mice, Methacholine concentration (mg/ml) 0” value (asthma model mice; 0.3 mg/mL, 50 µL intratracheally once daily for 3 days, methacholine 0 mg/ml) was 1.17 ± 0.23. For the same compound, the “Penh values in mice, Methacholine concentration (mg/ml) 6.25” value (asthma model mice; 0.3 mg/mL, 50 µL intratracheally once daily for 3 days, methacholine 6.25 mg/ml) was 1.78 ± 0.46, the “Penh values in mice, Methacholine concentration (mg/ml) 12.5” value (asthma model mice; 0.3 mg/mL, 50 µL intratracheally once daily for 3 days, methacholine 12.5 mg/ml) was 2.07 ± 0.66 and the “Effects on airway hyperresponsiveness (Penh values) in mice” value (asthma model mice; compared with the model group) was “significantly decreased the Penh values in mice”. The EC50 [7] was greater than 50 µM.
In the case of CCC(=O)O[C@]1(C(=O)SCF)[C@H](C)C[C@H]2[C@@H]3C[C@H](F)C4=CC(=O)C=C[C@]4(C)[C@@]3(F)[C@@H](O)C[C@@]21C [Fluticasone propionate, reference compound], the “plasma half-life in the human body” value [8] is listed as 3 h, the “level of IL-17 / inflammatory cytokines in psoriasis model mice” value (IL-17) is listed as “significantly decreased the level of IL-17” and the “IL-17” value (IL-17) is listed as 25.04 ± 10.02 pg/mL. The PASI scores (psoriasis model mice) was “PASI scores significantly decreased on day 7” and the PASI score (psoriasis model mice) was 4.0 ± 0.6.
Work on C[C@@H]1C[C@H]2[C@@H]3CCC4=CC(=O)C=C[C@]4(C)[C@@]3(F)[C@@H](O)C[C@]2(C)[C@@]1(O)C(=O)CO [Dexamethasone, reference compound] yielded a Macroscopic injury score [9] of 5.00 ± 0.66.

From patent EP4635969A1, “NOVEL GLUCOCORTICOID, METHOD FOR PREPARING SAME, AND USE THEREOF” (Tianjin Pharmaceutical Biotechnology Co., Ltd., priority 2022, dated 2024)
